Data: patent US20100068150A1, “Selective Caspase Inhibitors” (The Board of Trustees of the Leland Stanford Junior …, priority 2006, published 2010)

What was measured:
[1] = tested on: cathepsin B and legumain; assay: In vivo labeling of cathepsin B and legumain in kidney and spleen of normal mice; details: intravenous, tissues collected 2 hrs after injection
Method: The present selective caspase inhibitors may be used for in vivo imaging. Cy5-fluorescent labeled versions of AB46 and AB50 were injected into normal mice and labeling of cathepsins and legumain in kidney and spleen was monitored (FIG. 14).
Normal mice were intravenously injected with the probes and tissues were collected 2 hrs after injection. Tissues were homogenized and total protein samples were analyzed by SDS-PAGE followed by scanning of the gel using a fluorescent scanner.

[2] = target: T1, caspase-3 (Mus musculus, UniProt P70677); assay: In vivo labeling of caspase-3 in the thymus of dexamethazone treated mice; details: dexamethazone 40 mg/kg IP, probe by tail vein after 12 or 24 hrs, 3 hrs circulation
T1 construct: from tissue; host or cells: thymus of Balb-c mice
T1 sequence (P70677 29-175 limits assumed): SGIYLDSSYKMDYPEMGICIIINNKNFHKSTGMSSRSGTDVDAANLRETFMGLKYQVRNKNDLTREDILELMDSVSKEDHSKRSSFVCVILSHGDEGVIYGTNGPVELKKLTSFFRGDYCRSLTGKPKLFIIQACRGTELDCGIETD
T1 sequence (P70677 176-277 limits assumed): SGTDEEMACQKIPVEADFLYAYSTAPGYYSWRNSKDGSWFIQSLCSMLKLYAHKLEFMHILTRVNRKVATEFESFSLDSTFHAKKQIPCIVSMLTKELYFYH
Source text: The following example utilizes dexamethazone-induced apoptosis in the thymus. See, Cristina et al., “Dexamethasone-induced apoptosis of thymocytes: role of glucocorticoid receptor-associated Src kinase and caspase-8 activation,” prepublished online as a Blood First Edition Paper on Aug. 29, 2002; DOI 10.1182/blood-2002-06-1779. This is a particularly simple model that allows one to activate apoptosis specifically in the thymus by injection of normal mice with low doses of dexamethazone. […] Also, one can monitor changes in activation of caspases with time after induction of apoptosis.
Wild Type Balb-c mice were injected with dexamethazone (40 mg/kg) by IP injection. After 12 or 24 hrs the general caspase probe AB50 was injected by tail vein and the probe allowed to circulate for 3 hrs, at which time tissues from thymus, lung, liver, and kidney were collected. We removed the thymus, kidney and lung and imaged the whole organs using the IVIS2000 system. The tissues were then analyzed by SDS-PAGE and fluorescent scanning of the gels. For comparison we monitored the levels of cleaved, active caspase-3 using a specific antibody. […] An antibody against actin was used as a loading control.

Cc1cccc(C)c1C(=O)OCC(=O)[C@H](CC(=O)O)NC(=O)C1CCCN1C(=O)[C@@H](CCC(=O)O)NC(=O)Cc1ccc(O)c([N+](=O)[O-])c1 (stereo partly drawn) [AB50, NP-E-P- D-AOMK]
in vivo labeling in kidney and spleen [1]: only labeled legumain | in vivo labeling of caspase-3 in thymus [2]: Bands can be clearly seen at the caspase-3 estimated MW
